Measurements from patent publication US9238039B2, “Pyrazolo[1,5-A]pyrimidines for antiviral treatment” (Gilead Sciences, Inc., priority 2010, dated 2016).

Tested on: RSV strain A2
Assay: RSV antiviral cytoprotection assay in Hep2 cells (96-well and 384-well format, Cell TiterGlo read-out)
Assay type: cell-based, Respiratory Syncytial Virus (RSV)
Conditions: human respiratory syncytial virus; for inhibition at 0.5 µM: HEp-2, 0.5 uM; for inhibition at 0.5 µM / inhibition at 1 µM: RSV-induced cytopathic effect in Hep2 cells, calculated from fitted dose response curve, normalized to 0% and 100%; for inhibition at 1 µM: HEp-2, 1 uM; for EC50: HEp-2, RSV-induced cytopathic effects, Hep2 cells, class symbols

Compound | EC50 [nM] | inhibition at 0.5 µM [%] | inhibition at 1 µM [%]
CNc1ccccc1C(=O)N1CCCC[C@H]1c1cc2[nH]c(C)c(C)c(=O)n2n1 [Compound 7] | 0.1 to 100 | 93 | 98
Cc1cn2nc([C@@H]3CCCCN3C(=O)c3cccc(C(C)C#N)c3)cc2nc1N1CC[C@H](N)C1 (some centres unmarked) [Compound 351] | 0.1 to 100 | 100 | –
Cc1ccc(NS(C)(=O)=O)c(C(=O)N2CCCC(C)C2c2cc3nc(C)c(C)cn3n2)c1 (centres unmarked) [Compound 36] | 0.1 to 100 | 90 | –
Cc1cn2nc([C@@H]3CCCCN3C(=O)c3csnn3)cc2nc1N1CC[C@H](N)C1 [Compound 271] | 0.1 to 100 | 97 | –
CC(=O)Nc1c(Cl)cc(C)cc1C(=O)N1CCCC[C@H]1c1cc2nc(C)c(C)c(N(C)C)n2n1 [Compound 246] | 0.1 to 100 | 98 | –
CS(=O)(=O)Nc1ccc(Cl)cc1C(=O)N1CCCC[C@H]1c1cc2nc(N3CCCO3)cc(N3CCOCC3)n2n1 [Compound 70] | 0.1 to 100 | 99 | –
Cc1cn2nc([C@@H]3CC[C@H](C)CN3C(=O)c3cc(Cl)ccc3NS(C)(=O)=O)cc2nc1N1CCC1 [Compound 138] | 0.1 to 100 | 100 | –
Cc1cn2nc([C@@H]3CCCCN3C(=O)c3cc(C4CC4)[nH]n3)cc2nc1N1CC[C@H](N)C1 [Compound 297] | 0.1 to 100 | 95 | –
Cc1cn2nc([C@@H]3CCCCN3C(=O)c3cccc(-n4cnnc4)n3)cc2nc1N1CC[C@H](N)C1 [Compound 389] | 0.1 to 100 | 98 | –
Cc1cn2nc([C@@H]3CCCCN3C(=O)c3cc(-c4cccnc4)n[nH]3)cc2nc1N1CC[C@H](N)C1 [Compound 384] | 101 to 1000 | 48 | –
Cc1cc(N2CC[C@@H](O)C2)nc2cc([C@@H]3CCCCN3C(=O)c3cc(Cl)ccc3NS(C)(=O)=O)nn12 [Compound 48] | 0.1 to 100 | 99 | –
Cc1[nH]c2cc([C@@H]3C[C@H](C)CCN3C(=O)c3cc(F)ccc3NS(C)(=O)=O)nn2c(=O)c1C [Compound 21] | 1000 to 10000 | 4 | 10
Cc1ccc(C(=O)N2CCCC[C@H]2c2cc3nc(N4CC[C@H](N)C4)c(C)cn3n2)c(F)c1 [Compound 298] | 101 to 1000 | 21 | –
Cc1cn2nc([C@@H]3CCCCN3C(=O)c3ccccc3)cc2nc1N1CC[C@H](N)C1 [Compound 412] | 0.1 to 100 | 100 | –
Cc1cn2nc([C@@H]3CCCCN3C(=O)c3nn(C)c4ccccc34)cc2nc1N1CC[C@H](N)C1 [Compound 357] | 101 to 1000 | 82 | –
Cc1cn2nc([C@@H]3CCCCN3C(=O)c3n[nH]c4c3CCC4)cc2nc1N1CC[C@H](N)C1 [Compound 296] | 101 to 1000 | 49 | –

More lines, main results first:

EC50 [nM] | Compound | inhibition at 0.5 µM [%] | inhibition at 1 µM [%]
0.1 to 100 | Cc1cn2nc([C@@H]3CCCCN3C(=O)c3cc(O)ccc3Cl)cc2nc1N1CC[C@H](N)C1 [Compound 339] | 99 | –
1000 to 10000 | Cc1cc(C)n2nc(C(=O)N3CCCCC3c3cc4nc(N5CC[C@H](N)C5)c(C)cn4n3)nc2n1 (some centres unmarked) [Compound 397] | 3 | –
0.1 to 100 | CCCn1cc(Cl)c(C(=O)N2CCCC[C@H]2c2cc3nc(N4CC[C@H](N)C4)c(C)cn3n2)n1 [Compound 381] | 100 | –
0.1 to 100 | Cc1ccc(NS(C)(=O)=O)c(C(=O)N2CCCC[C@H]2c2cc3nc(C)c(C)c(C#N)n3n2)c1 [Compound 103] | 98 | –
1000 to 10000 | Cc1cn2nc([C@@H]3CCCCN3C(=O)c3cc(-c4ccccc4)ccn3)cc2nc1N1CC[C@H](N)C1 [Compound 410] | – | –
0.1 to 100 | CS(=O)(=O)Nc1ccc(Cl)cc1C(=O)N1CCCC[C@H]1c1cc2nc(N3CC[C@@H](O)C3)ccn2n1 [Compound 51] | 98 | –
0.1 to 100 | Cc1cc(NS(C)(=O)=O)c(C(=O)N2CCCC[C@H]2c2cc3nc(C4CC4)cc(C)n3n2)s1 [Compound 111] | 95 | –
